We go through three compounds from ChEMBL document CHEMBL1201862, “PubChem BioAssay data set” (2004).

The structures appear in SMILES notation.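 Dose response: 5 concentrations. Exposure: 48 h. Format: 96-well plates. Endpoint: linear interpolation; highest concentration if not reached. GI50 = concentration required for 50% inhibition of growth.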 The source made the active and inactive calls. Cut-off read from the data, not from the text of the source: active = GI50 up to about 1.1 µM and inactive = higher.

Test in all cases: growth of human tumour cells (NCI), 48 h
Assay [1] deals with SF-539.
Assay [2] relates to OVCAR-8.
Assay [3] deals with U-251.
Assay [4] concerns T47D.
The subject of assay [5] is M14.
Assay [6] relates to K562.
Assay [7] has as its system DU-145.
Assay [8] deals with MCF7.
Assay [9] concerns SK-MEL-28.
Assay [10] concerns NCI-H23.
The test system of assay [11] is ACHN.
The test system of assay [12] is UACC-62.
The test system of assay [13] is A549.
Assay [14] has as its system Malme-3M.
Assay [15] concerns HCT-15.
Assay [16] deals with SK-OV-3.
Assay [17] concerns OVCAR-5.
The test system of assay [18] is 786-0.
Assay [19] concerns NCI/ADR-RES.
Assay [20] has as its system OVCAR-3.

Turning to `COC(COC(N)=O)C1=C(N2CC2)C(=O)C(C)=C(N2CC2)C1=O` (stereo not given) [CARBOQUONE], the GI50 in assay [1] is < 0.0198 µM (active); in [2], 0.0318 µM (active); in [3], 0.0366 µM (active); in [4], 0.0435 µM (active); in assay [5], 0.0395 µM (active); in [6], 0.0352 µM (active). In addition, the GI50 is < 0.01 µM (active) in assay [7]; < 0.01 µM (active) in assay [8]; 0.172 µM (active) in [9]; < 0.0148 µM (active) in assay [10]; < 0.01 µM (active) in assay [11]; < 0.0156 µM (active) in assay [12]. In addition, the GI50 was 0.0185 µM (active) in assay [13]; 0.0692 µM (active) in assay [14]; 0.0594 µM in assay [15]; 0.0718 µM (active) in assay [16]; 0.106 µM (active) in [17]; 0.0201 µM (active) in assay [18]. Also, the GI50 in assay [19] is 0.0241 µM (active); in [20] it was 0.0607 µM (active).

As for `COc1cc(C2c3cc4c(c(O)c3C(=O)C3CCC(=O)N32)OCO4)cc(OC)c1OC` (stereo not given), the GI50 in [1] is 46.9 µM (inactive); in assay [2], > 100 µM (inactive); in assay [3], > 100 µM (inactive); in assay [4], 99.5 µM (inactive); in [5] it was 42.1 µM (inactive); in assay [6] it was 34.9 µM (inactive). The GI50 in assay [7] was > 100 µM (inactive); in assay [8], 77.1 µM (inactive); in [9] it was 49.5 µM (inactive); in [10], > 100 µM (inactive); in assay [11], 75 µM (inactive); in assay [12], 30.1 µM (inactive). Moreover, the GI50 in assay [13] is 18.2 µM (inactive); in assay [14], 39.9 µM (inactive); in assay [15], 48.8 µM; in [16], 46 µM (inactive); in assay [17], > 100 µM (inactive); in assay [18], 92.5 µM (inactive). For the same compound, the GI50 is 89.1 µM (inactive) in assay [19] and 68.1 µM (inactive) in [20].

`COc1cc2ncnc(Nc3cccc(Br)c3)c2cc1OC`: the GI50 was 4.07 µM (inactive) in [1]; 3.72 µM (inactive) in assay [2]; 7.06 µM (inactive) in [3]; 6.81 µM (inactive) in assay [4]; 3.79 µM (inactive) in assay [5]; 15.9 µM (inactive) in [6]. Also, the GI50 in [7] is 0.0741 µM (active); in [8] it was 23.1 µM (inactive); in assay [9], 4.52 µM (inactive); in assay [10], 12.5 µM (inactive); in assay [11], 0.06 µM (active); in [12], 3.85 µM (inactive). Moreover, the GI50 in assay [13] was 7.6 µM (inactive); in [14] it was 7.36 µM (inactive); in assay [15] it was 6.56 µM; in assay [16], 0.284 µM (active); in [17], 8.13 µM (inactive); in assay [18], 2.11 µM (inactive). The GI50 was 2.46 µM (inactive) in assay [19] and 5.14 µM (inactive) in assay [20].
